# Where a name gives a salt, the structure may show the parent alone.
# How the values were obtained:
# [1] = system: plasma renin activity; assay: Inhibition of evoked (drug-induced) elevation of plasma renin activity in conscious rats; format: in vivo, male Wistar rats; conditions: Rattus norvegicus, 30 min before provocative treatment; for inhibition in vivo at 25 mg/kg: 25 mg/kg oral
# Method: Inhibition of evoked increase of plasma renin activity was determined by the following test.
# Compounds were tested for their ability to prevent drug-induced elevation of plasma renin activity (PRA) in concious, male Wistar rats (180-200 g, Charles River Lab.). PRA elevation was induced by a combined oral provacative treatment (C) of hydrochlorothiazide (10 mg/kg) and 1-(3-benzoyl-3-mercapto-2-methylpropionyl)-L-proline, acetate (U.S. Pat. No. 4,226,775) (one mg/kg), prepared by compounding in a mortar and pestle with preboiled 3% starch suspension. This treatment provided the daily maximum PRA. The daily minimum PRA was obtained from rats given oral starch suspension (S) alone. The magnitude of drug effect on PRA elevation was ascertained from rats pretreated orally with test agent (D), at the indicated doses, 30 minutes prior to administration of provacative treatment (C). The test agent was also compounded in preboiled 3% starch suspension. The dose volumes for both pretreatment and provocative treatment were 2 ml/kg. One hour after provocative treatment the rats were sacrificed by decapitation and the first 3 seconds of blood collected in two chilled Vacutainer® tubes (Becton-Dickinson, Rutherford, N.J.) containing 40 μl of 150 mg/ml tripotassium EDTA. The plasma fractions, obtained by centrifugation for 20 minutes at 4° C. and 3000 G, were incubated (one of each pair at 37° C., the other at 4° C.) at pH 6.8 in 50 mM phosphate buffer to produce angiotensin I. The incubates contained peptidase inhibitors to prevent angiotensin I degradation and the incubation buffer contained one mg/ml lysozyme (Sigma Grade III) used as an antiabsorbant. The incubates were diluted 20 fold in cold 100 mM Tris buffer (pH adjusted to 7.4 with glacial acetic acid) also containing one mg/ml lysozyme, and then frozen. Diluted incubates were assayed within 3 days for angiotensin I content by radioimmunoassay according to a modification of the method of Haber, et al., J. Clin. Endocrin., 29, 1349-1355 (1969).
# PRA is calculated as follows:
# PRA(ng AI/hour/ml plasma)=PRA 37° C.-PRA 4° C.
# Percent inhibition of PRA elevation is calculated as follows: [formula]
# [2] = system: spontaneously hypertensive rats (SHR); assay: Diuretic activity in spontaneously hypertensive rats; format: in vivo, male spontaneously hypertensive rats (Okamoto strain); conditions: 100 mg/kg by gavage with 0.9% sodium chloride loading 25 ml/kg; 0-5 hour urine
# Method: The diuretic activity of the compounds of this invention was also determined according to the method of Chan, P. S. and Poorvin, D., Sequential method for combined screening antihypertensive and diuretic agents in the same spontaneously hypertensive rat. Clinical and Experimental Hypertension, 1(6), 817-830 (1979).
# Male spontaneously hypertensive rats (SHR) of Okamoto strain, 16 weeks old, Taconic Farms Inc. were used in the test. These rats were kept on Purina laboratory chow and tap water ad libitum for 8 weeks before use. One male adult rat (about 300 g) was dosed by gavage with a test compound at 100 mg/kg together with 0.9% sodium chloride loading at 25 ml/kg at zero hour. The test compound was suspended in 3% preboiled starch at 50 mg/ml. The rat was put in a metabolism cage. The 0-5 hour urine was collected and urinary sodium and potassium were determined using a Beckman Astra 4. The effects of representative compounds of the invention according to this test appear in Table III expressed in milliequivalents (mEQ) of urinary sodium and potassium excreted.
Structure (SMILES),inhibition in vivo at 25 mg/kg [1],Potassium (urinary excretion) [2],Sodium (urinary excretion) [2],Volume (urine) [2],inhibition in vivo at 50 mg/kg ([1]; 50 mg/kg oral),inhibition in vivo at 100 mg/kg ([1]; 100 mg/kg oral)
"COC(=O)N=P(c1ccccc1)(c1ccccc1)c1ccccc1 [(Triphenylphosphoranylidene)carbamic acid, methyl ester]",72%,0.55 mEQ/5 Hours,2.53 mEQ/5 Hours,23.3 mL,,
"CCCOC(=O)N=P(c1ccccc1)(c1ccccc1)c1ccccc1 [(Triphenylphosphoaranylidene)carbamic acid, n-propyl ester]",90%,0.48 mEQ/5 Hours,1.37 mEQ/5 Hours,12.5 mL,,
"COC(=O)N=P(c1ccccc1)(c1ccccc1)c1c(C)cccc1C [[(2,6-dimethylphenyl)diphenylphosphoranylidene]carbamic acid, methyl ester]",68%,0.84 mEQ/5 Hours,1.33 mEQ/5 Hours,12.8 mL,,
"CCOC(=O)N=P(c1ccccc1)(c1ccccc1)c1ccccc1Cl [[(2-chlorophenyl)diphenylphosphoranylidene]carbamic acid, ethyl ester]",96%,0.71 mEQ/5 Hours,2.05 mEQ/5 Hours,19.5 mL,,
"O=C(N=P(c1ccccc1)(c1ccccc1)c1ccccc1)OC1CCOC1 (stereo not shown) [(Triphenylphosphoranylidene)carbamic acid, tetrahydro-3-furanyl ester]",69%,0.70 mEQ/5 Hours,1.10 mEQ/5 Hours,14.8 mL,49%,85%
Cc1ccccc1P(=N)(c1ccccc1)c1ccccc1 [(2-Methylphenyl)diphenylphosphinimide sulfate],,0.68 mEQ/5 Hours,1.88 mEQ/5 Hours,16.3 mL,,
"CC(=O)CCCOC(=O)N=P(c1ccccc1)(c1ccccc1)c1ccccc1 [(triphenylphosphoranylidene)carbamic acid, 4-oxo-pentan-1-yl ester]",,0.58 mEQ/5 Hours,1.16 mEQ/5 Hours,13.3 mL,,
"O=C(N=P(c1ccccc1)(c1ccccc1)c1ccccc1)OC1CCOCC1 [(triphenylphosphoranylidene)carbamic acid, tetrahydro-2 --H--pyran-4-yl ester]",,0.64 mEQ/5 Hours,1.60 mEQ/5 Hours,15.3 mL,,
"O=C(N=P(c1ccccc1)(c1ccccc1)c1ccccc1)OC1CCCC1 [(triphenylphosphoranylidene)carbamic acid, cyclopentyl ester]",,0.80 mEQ/5 Hours,1.48 mEQ/5 Hours,14.0 mL,,
Cc1ccccc1P(=N)(c1ccccc1)c1ccccc1C [[Bis(2-methylphenyl)phenyl]phosphinimide sulfate],,0.88 mEQ/5 Hours,1.44 mEQ/5 Hours,13.0 mL,,
"CCOC(=O)N=P(c1ccccc1)(c1ccccc1)c1ccccc1OC [[(2-Methoxyphenyl)diphenylphosphoranylidene]carbamic acid, ethyl ester]",,0.97 mEQ/5 Hours,1.31 mEQ/5 Hours,11.3 mL,,
"CC#CCOC(=O)N=P(c1ccccc1)(c1ccccc1)c1ccccc1 [(triphenylphosphoranylidene)carbamic acid, 2-butynyl ester]",,0.57 mEQ/5 Hours,1.15 mEQ/5 Hours,10.0 mL,,
"COC1CCCCC1OC(=O)N=P(c1ccccc1)(c1ccccc1)c1ccccc1 (stereo not drawn) [(triphenylphosphoranylidene)carbamic acid, cis- and trans-2-methoxycyclohexyl ester]",,0.59 mEQ/5 Hours,1.15 mEQ/5 Hours,11.3 mL,,
"CCOC(=O)N=P(c1ccccc1)(c1ccccc1)c1cccc(Cl)c1 [[(3-chlorophenyl)diphenylphosphoranylidene]carbamic acid, ethyl ester]",,0.64 mEQ/5 Hours,2.32 mEQ/5 Hours,23.8 mL,,
"C#CCOC(=O)N=P(c1ccccc1)(c1ccccc1)c1ccccc1 [(triphenylphosphoranylidene)carbamic acid, 2-propynyl ester]",,0.58 mEQ/5 Hours,1.76 mEQ/5 Hours,15.5 mL,,
"CCOC(=O)N=P(c1ccccc1)(c1ccccc1)c1ccccc1F [[Diphenyl(2-fluorophenyl)phosphoranylidene]carbamic acid, ethyl ester]",,0.66 mEQ/5 Hours,2.01 mEQ/5 Hours,19.8 mL,,
"COC(=O)N=P(c1ccccc1)(c1ccccc1)c1ccccc1C [[(2-methylphenyl)diphenylphosphoranylidene]carbamic acid, methyl ester]",,0.88 mEQ/5 Hours,1.95 mEQ/5 Hours,18.3 mL,,
"CCC1(OC(=O)N=P(c2ccccc2)(c2ccccc2)c2ccccc2)CCCC1 [(triphenylphosphoranylidene)carbamic acid, 1-ethylcyclopentyl ester]",,1.01 mEQ/5 Hours,1.34 mEQ/5 Hours,12.5 mL,,
"CCOC(=O)N=P(c1ccccc1)(c1ccccc1)c1ccccc1CC [[(2-ethylphenyl)diphenylphosphoranylidene]carbamic acid, ethyl ester]",,0.78 mEQ/5 Hours,2.07 mEQ/5 Hours,19.0 mL,,
"O=C(N=P(c1ccccc1)(c1ccccc1)c1ccccc1)OC1CCc2ccccc21 (stereo not shown) [(Triphenylphosphoranylidene)carbamic acid, 2,3-dihydro-1 --H--inden-1-yl ester]",,0.87 mEQ/5 Hours,1.41 mEQ/5 Hours,13.0 mL,,
"COC(=O)N=P(c1ccccc1)(c1ccccc1C)c1ccccc1C [[Bis(2-methylphenyl)phenylphosphoranylidene]carbamic acid, methyl ester]",,0.76 mEQ/5 Hours,1.45 mEQ/5 Hours,13.5 mL,,
"Cc1ccccc1P(=NC(=O)OC1CCCC1)(c1ccccc1)c1ccccc1 [[(2-methylphenyl)diphenylphosphoranylidene]carbamic acid, cyclopentyl ester]",,0.67 mEQ/5 Hours,1.18 mEQ/5 Hours,10.8 mL,,

# From patent US4767749A, “Ester of (triarylphosphoranylidene)carbamic acid having diuretic and ability to lower plasma renin properties” (American Cyanamid Company, priority 1986, dated 1988)
